Data published in US8212038B2, “Methods and compositions for controlling ectoparasites” (HatchTech Pty Ltd., priority 2003, dated 2012).
Entries after “also recorded” stand apart in the source; their conditions may differ.

Tests used:
[1] = test system: head lice egg (Pediculus humanus capitus); experiment: Head lice egg hatching time course; format: in vivo; conditions: 10 mM
Protocol: Tests were carried out to determine if metal chelating agent and metalloprotease inhibitor 1,10-phenanthroline could inhibit head lice egg (Pediculus humanus capitus) hatching as opposed to body lice. Head lice eggs were obtained by placing groups of both 1-2 adult male and 6-8 adult female head lice in separate wells in a 24 well petri dish containing cotton cloth. The petri dish was transferred to a humid incubator at 32° C., 70% RH for 12 hours to permit the female lice to lay their eggs. After 12 hours, all adult lice were removed from the petri dish wells and a series of time-course experiments conducted. A group of eggs (24 hr old) was treated for 10 minutes with 200 μl of a 10 mM solution of 1,10-phenanthroline. A control (i.e., no inhibitor treatment) group of eggs was also included. The eggs were removed from the inhibitor, blotted dry on tissue paper, placed at 32° C., 70% RH and left to hatch. A second group of eggs, (48 hr old) were treated as previously described and also left to hatch. This process was repeated at 24 hr intervals on head lice eggs up to 120 hr post laying. This method of assaying inhibitors more closely mirrors the field situation where lice eggs will be at various stages of development on the head and permits the inhibitory effects to be observed on these different stages of the parasite.

[2] = test system: lice eggs; experiment: Standard lice egg-hatching assay with commercial head lice products; format: in vivo; conditions: across the different stages of lice egg hatching (24-120 hr post laying)
Protocol: These three products were tested according to manufacturer's recommendations. Groups of eggs (24 hr old) were treated with the different products according to manufacturer's recommendations for the appropriate period of time (5-10 minutes) followed by a rinse for 1-2 minutes in 32° C. water. A positive controls (10 mM 1,10-phenanthroline) and two negative controls (no treatment and 20% Methanol) were also incorporated. Post exposure to the different products, the eggs were rinsed with warm water at 32° C. before being blotted dry on tissue paper and placed at 32° C., 70% RH and left to hatch. A second group of eggs, (48 hr old) were treated as previously described and also left to hatch. This process was repeated at 24 hr intervals on head lice eggs up to 120 hr post laying. This method of assaying inhibitors more closely mirrors the field situation where lice eggs will be at various stages of development on the head and permits the inhibitory effects to be observed on these different stages of the parasite.
These two products were tested according to manufacturer's recommendations. Groups of eggs (24 hr old) were treated with the different products according to manufacturer's recommendations for the appropriate period of time (5-10 minutes) followed by a rinse for 1-2 minutes in 32° C. water. Two negative controls (no treatment and 20% ethanol) were also incorporated. […]

[3] = test system: Plutella xylostella eggs (Waite strain); experiment: Egg hatch of Plutella xylostella after dipping in inhibitor; conditions: 10 mM
Protocol: The egg masses were then placed in a humid box at 25 degrees until egg hatch. Control eggs were exposed to absolute methanol as described above. At day 6 post laying the eggs were assessed from the different treatments and the percentage of egg hatch determined relative to the control as shown in Table 9.
Batches of Plutella eggs that were laid on either fine cloth or parafilm were dipped in a specific inhibitor solution for between 2-10 seconds, the excess solution was drained by blotting with dry tissue paper. The egg masses were then placed in a humid box at 25 degrees until egg hatch. Control eggs were exposed to absolute methanol as described above or not treated.
The egg masses were then placed in a humid box at 25 degrees until egg hatch. Control eggs were exposed to absolute ethanol as described above. On day 6 post laying the eggs were assessed from the different treatments and the percentage of egg hatch determined relative to the control.

[4] = test system: proteases in the egg shell washings (ESW) of lice eggs; experiment: Gelatine substrate SDS-PAGE of egg shell washings treated with protease inhibitors; format: biochemical, Pediculus humanus humanus; conditions: 10 mM inhibitor; 37° C., 3 hrs
Protocol: Within 12 hours of hatching 50 body lice eggs (Pediculus humanus humanus) were removed from the hair and placed in a 1 ml eppendorf tube. 20 μL of distilled water was added to the unhatched eggs and the preparation incubated for 30 minutes at 32° C. The 20 μL was recovered, freeze dried and stored at −70° C. A number of other samples were also collected as described. Hair samples from which unhatched lice eggs had been removed were also collected and incubated as described above. In addition, a sample of unhatched eggs and a sample of hair from which lice eggs had been removed were collected 7 days post laying (within 24 hrs of egg hatching). Both samples were washed in 10 mls of a 1% solution of sodium hypochlorite for 1 minute followed by a 5×1 minute washes in 25 mls in distilled water to remove the hypochlorite. These samples were then incubated in […] of distilled water as described above. In addition, a group of 25 lice eggs that were within 24 hours of hatching, were pretreated with 1% sodium hypochlorite, washed as described above and left to hatch. Within 1-2 hours after hatching the empty egg shells were incubated in 20 μL of distilled water as described above, the washings collected from the hatched egg shells and stored at −70° C. All of the extract samples were then freeze-dried overnight. The freeze-dried samples were then resuspended in […] of non-reducing SDS sample buffer, centrifuged at 10,000 g for 2 minutes and the entire 15 μL loaded on to 10% gelatine substrate SDS-PAGE gels. Gels were run at 4° C. for 10 minutes at 10 mA followed by a further 25 minutes at 15 mA per gel. They were then incubated for 2×20 minutes in a 2.5% Triton-X 100 solution followed by a three hour incubation in 0.1M Tris/HCl containing 1 mM CaCl2 pH 8.0. Activity was detected as clear areas on the gel the result of protease activity degrading the gelatine within the gel.
10% SDS-PAGE gelatine substrate gels were loaded with freeze dried egg shell washings from 100 lice eggs that had been resuspended in 50 μl of non-reducing sample buffer with samples run at 10 μl per lane. Gels were run at 4° C. for 10 minutes at 10 mA per gel followed by a further 25 minutes at 15 mA per gel. Gels were then cut into strips and each strip incubated for 2×20 minutes in a 2.5% Triton-X 100 solution containing a specific inhibitor. The inhibitors used were the serine protease inhibitor PMSF (5 mM), the metalloprotease inhibitor 1,10-phenanthroline (10 mM), the aspartic protease Pepstatin (5 μM) and the cysteine inhibitor E-64 (10 μM). The gel strips were then incubated in 0.1M Tris/HCl containing 1 mM CaCl2 pH 8 containing the different protease inhibitors for 3 hrs at 37° C., before being stained in Coomassie blue and destained as previously described.

[5] = test system: lice eggs; experiment: Time course in vitro lice egg hatching assay; format: in vivo, Pediculus humanus humanus
[6] = test system: Helicoverpa armigera eggs (Tatura×Toowoomba strains); experiment: Egg hatch of Helicoverpa armigera after exposure to inhibitor; conditions: 10 mM
Protocol: Several hundred Helicoverpa armigera eggs (Tatura×Toowoomba strains) were collected, that had been laid on fine mesh cloth over a 24 hour period.
Batches of Helicoverpa eggs were exposed to a specific inhibitor solution for between 2-10 seconds the excess solution drained by blotting with dry tissue paper. The egg masses were then placed in a humid box at 25 degrees until egg hatch. Control eggs were exposed to absolute methanol as described above.

[7] = test system: lice eggs; experiment: Lice egg-hatching bioassay, eggs treated once 5 days post laying; format: in vivo, Pediculus humanus humanus
Protocol: To evaluate the potential effects of protease inhibitors on lice egg hatching it was necessary to develop a reliable in vitro bioassay. Male and female clothing lice were fed on a rabbit as previously described. […] During this period the female lice laid their eggs and attached them to the woven cloth. All lice would then be removed and the eggs permitted to incubate for the following 5 days. […] The eggs would then progress through to their final stages of development and hatch. In untreated control eggs a reliable average percentage hatch of between 85-95 percent was obtained using the in vitro egg hatch assay. […] Lice eggs were laid onto cloth as described above. […] Protease inhibitor solutions were typically prepared as stock solutions and added fresh at the appropriate concentration. Specifically stock solutions were prepared as follows: 1,10-phenanthroline (200 mM in methanol) and Bestatin (5 mg/ml in methanol). In addition, the equivalent levels of the solvent were added to the non-inhibitor containing controls eggs to test for any buffer alone effects. Percentage hatch inhibition was calculated as the percentage reduction in egg hatch compared to the untreated control.

[8] = added within 24 hours of hatching, data not shown

Row | Structure (SMILES) | inhibition of egg hatching in head lice (in words) [1] | ovicidal activity (in words) [2] | inhibition of egg hatching in Plutella xylostella (in words) [3] | protease activity of ESW on gelatine SDS-PAGE after inhibitor treatment [4] | inhibition of lice egg hatching (in words) ([5]; 10 mM, following washing of eggs in water) | inhibition of lice egg hatching (in words) ([5]; varying concentrations (10, 5, 2.5 mM) over the time course) | inhibition of egg hatching of Helicoverpa armigera (in words) [6] | inhibition of egg hatching in lice (in words) ([7]; 10 mM, eggs treated 5 days post laying) | inhibition of egg hatching in lice (in words) [7, 8] | inhibition of lice egg hatching (in words) ([5]; 5 mM, time course) | inhibition of egg hatching in lice (in words) ([7]; 5 mM, eggs treated 5 days post laying)
1 | c1cnc2c(c1)ccc1cccnc12 [1,10-phenanthroline, reference compound] | significantly inhibit egg hatching in head lice | highly effective at inhibiting lice egg hatching | significantly inhibit egg hatching | significant reduction in protease activity | still highly efficacious at inhibiting lice egg hatching | Significant inhibition; also recorded: significantly inhibit egg hatching in lice at all time points examined | able to inhibit egg hatching at 10 mM only | significantly inhibited egg hatching | variable inhibition of egg hatching |  | 
2 | CC(C)C[C@H](NC(=O)[C@@H](O)[C@H](N)Cc1ccccc1)C(=O)O [Bestatin, reference compound] |  |  |  |  |  |  |  |  | variable inhibition of egg hatching | significant inhibition, but only when applied approximately 24 hrs prior to egg hatch; also recorded: partially inhibit lice egg hatching | significantly inhibit lice egg hatching
